Measured values from US9745305B2, “Modulators of methyl modifying enzymes, compositions and uses thereof” (Constellation Pharmaceuticals, Inc., priority 2013, dated 2017).

Legend:
EZH2 = EZH2 (Homo sapiens, UniProt Q15910); test: EZH2 Assay (3H SAM methyl transfer, rPRC2, FlashPlate); format: biochemical; conditions: rPRC2, biotinylated oligonucleosomes, 0.2 μM 3H SAM, 2 nM EZH2
Method in brief: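 rPRC2 (2 nM EZH2) was preincubated 20 min with compound (80 to 0.16 μM, 10 points), then reacted 60 min with 0.2 μM ³H-SAM, 0.2 μM biotinylated oligonucleosomes and 3.6 μM H3K27me3 peptide at pH 8.5. Methylated product was captured on SAV FlashPlates and counted, and IC50 came from a 4-parameter fit.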

[1] = tested on: H3K27me3 mark in Hela cells expressing wild type EZH2; test: H3K27me3 Alpha Hela Assay (AlphaLISA); format: cell-based; conditions: Homo sapiens, 72 hrs, read-out: H3K27me3_Alpha_HeLa (EC50)
Method in brief: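 HeLa cells (1,000/well) were exposed 72 h at 37 °C to ten 3-fold compound dilutions. H3K27me3 was then measured by AlphaLISA after histone lysis/extraction, using anti-K27me3 acceptor beads, biotinylated anti-H3 and streptavidin donor beads. Signals were normalized to DMSO and fitted to dose-response curves; a duplicate plate measured viability.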

Y641N EZH2 = Y641N EZH2 (Homo sapiens, UniProt Q15910, Y641N); test: Assay for Y641N EZH2 (as the EZH2 assay, H3K27Me2 oligonucleosomes as substrate); format: biochemical; conditions: Y641N EZH2 mutant, reconstituted H3K27Me2 oligonucleosomes as substrate
Method in brief: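 rPRC2 (2 nM EZH2) with 0.2 μM reconstituted H3K27Me2 biotinylated oligonucleosomes, 3.6 μM H3K27me3 peptide, 0.2 μM ^3H SAM in Tris pH 8.5; compounds (80 to 0.16 μM, 2-fold) pre-incubated 20 min, reaction 60 min, SAH/EDTA quench. Tritiated product captured on streptavidin plates, scintillation counted; IC50 from 4-parameter fit.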

Sequence of Y641N EZH2 (Q15910 whole entry Y641N): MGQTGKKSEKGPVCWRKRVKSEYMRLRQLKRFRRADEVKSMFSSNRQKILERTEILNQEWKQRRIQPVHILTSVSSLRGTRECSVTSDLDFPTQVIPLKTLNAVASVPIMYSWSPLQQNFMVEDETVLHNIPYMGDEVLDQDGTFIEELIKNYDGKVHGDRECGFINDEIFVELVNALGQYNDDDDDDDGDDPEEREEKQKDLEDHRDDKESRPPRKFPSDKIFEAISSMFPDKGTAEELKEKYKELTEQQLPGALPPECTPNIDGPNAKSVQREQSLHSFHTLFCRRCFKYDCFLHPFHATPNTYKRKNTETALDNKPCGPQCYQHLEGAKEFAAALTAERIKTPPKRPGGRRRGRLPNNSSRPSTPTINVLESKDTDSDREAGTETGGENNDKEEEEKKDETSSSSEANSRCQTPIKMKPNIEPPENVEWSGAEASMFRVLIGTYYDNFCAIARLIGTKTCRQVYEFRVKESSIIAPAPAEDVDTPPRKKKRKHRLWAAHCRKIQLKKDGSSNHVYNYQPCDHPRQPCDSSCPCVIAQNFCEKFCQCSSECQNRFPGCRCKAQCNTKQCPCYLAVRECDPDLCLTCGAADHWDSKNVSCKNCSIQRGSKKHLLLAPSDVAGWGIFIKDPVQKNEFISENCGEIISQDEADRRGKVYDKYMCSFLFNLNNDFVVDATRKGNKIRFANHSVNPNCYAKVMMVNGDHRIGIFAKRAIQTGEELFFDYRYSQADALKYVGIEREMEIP
Sequence of Y641N EZH2 (O75530 whole entry partner): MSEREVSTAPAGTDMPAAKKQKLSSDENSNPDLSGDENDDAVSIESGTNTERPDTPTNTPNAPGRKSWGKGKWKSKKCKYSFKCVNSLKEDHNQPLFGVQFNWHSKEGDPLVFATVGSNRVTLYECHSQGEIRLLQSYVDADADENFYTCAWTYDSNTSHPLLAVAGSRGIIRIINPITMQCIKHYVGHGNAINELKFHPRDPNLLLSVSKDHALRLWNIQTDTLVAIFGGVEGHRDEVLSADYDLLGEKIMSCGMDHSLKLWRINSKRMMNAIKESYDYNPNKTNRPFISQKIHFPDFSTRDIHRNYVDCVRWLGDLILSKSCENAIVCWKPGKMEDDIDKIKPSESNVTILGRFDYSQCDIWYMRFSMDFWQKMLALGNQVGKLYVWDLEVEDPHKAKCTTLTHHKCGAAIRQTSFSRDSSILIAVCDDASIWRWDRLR
Sequence of Y641N EZH2 (Q15022 whole entry partner): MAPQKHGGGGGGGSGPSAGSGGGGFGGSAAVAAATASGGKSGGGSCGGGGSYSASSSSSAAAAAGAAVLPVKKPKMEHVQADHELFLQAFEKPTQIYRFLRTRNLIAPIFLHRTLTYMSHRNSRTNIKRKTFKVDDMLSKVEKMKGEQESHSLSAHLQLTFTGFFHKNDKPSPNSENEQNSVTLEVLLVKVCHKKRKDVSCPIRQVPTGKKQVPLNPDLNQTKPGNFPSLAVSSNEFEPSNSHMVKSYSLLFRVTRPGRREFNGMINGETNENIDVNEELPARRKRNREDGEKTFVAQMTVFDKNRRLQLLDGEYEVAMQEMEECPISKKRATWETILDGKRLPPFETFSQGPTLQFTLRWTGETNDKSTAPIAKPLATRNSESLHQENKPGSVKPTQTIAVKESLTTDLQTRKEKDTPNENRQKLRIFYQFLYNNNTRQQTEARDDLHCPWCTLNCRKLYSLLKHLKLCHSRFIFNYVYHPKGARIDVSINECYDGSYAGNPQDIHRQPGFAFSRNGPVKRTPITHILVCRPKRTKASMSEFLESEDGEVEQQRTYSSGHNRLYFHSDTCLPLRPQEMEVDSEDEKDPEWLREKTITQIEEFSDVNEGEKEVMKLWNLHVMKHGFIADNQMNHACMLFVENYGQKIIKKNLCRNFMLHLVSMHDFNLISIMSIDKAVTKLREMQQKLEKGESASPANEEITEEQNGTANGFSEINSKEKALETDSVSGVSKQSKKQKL
Sequence of EZH2 (Q15910 whole entry): as the sequence (Q15910 whole entry Y641N) above, with N641Y counted along it
Sequence of EZH2 (O75530 whole entry partner): as the sequence (O75530 whole entry partner) above
Sequence of EZH2 (Q15022 whole entry partner): as the sequence (Q15022 whole entry partner) above

Compound | IC50 (EZH2) [nM] | EC50 [1] [nM] | IC50 (Y641N EZH2) [nM]
COc1cc(C)[nH]c(=O)c1CNC(=O)c1c(C)c(C(C)c2ccccc2)n2ncccc12 (racemic) [Compound 101, (±)-N-((4-methoxy-6-methyl-2-oxo-1,2-dihydropyridin-3-yl)methyl)-6-methyl-7-(1-phenylethyl)pyrrolo[1,2-b]pyridazine-5-carboxamide] | < 100 | < 400 | < 100
COc1cc(C)[nH]c(=O)c1CNC(=O)c1c(C)c(C(C)C2CCOCC2)n2ncccc12 (racemic) [Compound 116, (±)-N-((4-methoxy-6-methyl-2-oxo-1,2-dihydropyridin-3-yl)methyl)-6-methyl-7-(1-(tetrahydro-2H-pyran-4-yl)ethyl)pyrrolo[1,2-b]pyridazine-5-carboxamide] | < 100 | < 400 | < 100
COc1cc(C)[nH]c(=O)c1CNC(=O)c1c(C)c(C(C)c2ccccc2)n2ncccc12 (single isomer, unassigned) [Compound 105, (R or S)-N-((4-methoxy-6-methyl-2-oxo-1,2-dihydropyridin-3-yl)methyl)-6-methyl-7-(1-phenylethyl)pyrrolo[1,2-b]pyridazine-5-carboxamide] | < 100 | < 400 | < 100
